Test: Decomposition temperature of sensitive compounds and of the encapsulated additives
Format: physicochemical
Settings: not encapsulated
Source text: The sensitive compounds set forth in Table 1 constitute preferred examples of compounds that may be used in the preparation of the active and intelligent additive according to the present invention. The sensitive compounds release a certain amount of electrons according to the characteristic reaction for each compound.

Row | Compound | Decomposition Temperature of the Sensitive Compound
1 | Citric Acid | 175 °C
2 | O=C1O[C@H]([C@@H](O)CO)C(O)=C1O [Ascorbic Acid] | 190 °C

— patent publication US10144817B2, “Active and intelligent additive, polymer and article” (Braskem S.A., priority 2010, dated 2018)
